Reference: US4001238A, “1,3,4-Oxadiazole amides” (Bristol-Myers Company, priority 1976, dated 1977)

Columns and labels:
[1] = tested on: spontaneous hypertensive rats; assay: Antihypertensive activity, oral administration to spontaneous hypertensive rats; format: in vivo, rat; details: for ED50: Rattus norvegicus, read-out: Antihypertensive Activity ED50 mm Hg
Protocol: (§1) In Table 1, antihypertensive activity was determined by oral administration to spontaneous hypertensive rats, and the in vitro and in vivo α-adrenergic receptor blocking effect was determined by tests described following Table 1.

in vivo = details: mouse, IV, mice
α-adrenergic receptor [2] = target: T1, α-adrenergic receptor (Rattus norvegicus, UniProt P43140); assay: Isolated rat seminal vesicle assay (inhibition of norepinephrine induced contractions; α-adrenergic receptor blocking effect in vitro); details: for decrease in the sensitivity of isolated rat seminal vesicles to the stimulant activity of NE: 10 nanograms/ml; for NE ED50 with 95% Conf. Limits: NE ED50 in presence of test compound 10 nano/ml, control 0.89 (0.84-0.94)
T1 construct: Seminal vesicles were removed and transfered to a shallow dish containing modified Tyrode's solution; from tissue; host or cells: isolated seminal vesicle of male Long Evans rats
T1 sequence (P43140 1-466): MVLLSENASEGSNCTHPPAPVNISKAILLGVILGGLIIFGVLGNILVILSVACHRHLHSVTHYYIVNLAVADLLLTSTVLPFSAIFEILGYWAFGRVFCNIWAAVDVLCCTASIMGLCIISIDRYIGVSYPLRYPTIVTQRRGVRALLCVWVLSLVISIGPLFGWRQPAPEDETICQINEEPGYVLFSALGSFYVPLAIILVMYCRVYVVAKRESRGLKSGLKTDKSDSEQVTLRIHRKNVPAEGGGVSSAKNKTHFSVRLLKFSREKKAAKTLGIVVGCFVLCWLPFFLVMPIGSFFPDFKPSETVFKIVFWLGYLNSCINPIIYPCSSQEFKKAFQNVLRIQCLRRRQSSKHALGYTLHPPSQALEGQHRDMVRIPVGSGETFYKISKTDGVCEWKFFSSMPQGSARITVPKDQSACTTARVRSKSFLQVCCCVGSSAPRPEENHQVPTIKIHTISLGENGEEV
Protocol: as §1, with “1. In the in vitro test, the inhibition by BL-5111 of norepinephrine induced contractions of rat seminal vesicles was measured; and in the in vivo test, the inhibition by BL-5111 of norepinephrine induced pressor responses in anesthetized dogs was measured.” for “1.”
Dangan et al, Int. […] Lietch et al, Brit.
Male Long Evans rats weighing approximately 300 g. were sacrificed by a sharp blow on the head. Seminal vesicles were removed and transfered to a shallow dish containing modified Tyrode's solution. The vesicles were emptied of their contents by squeezing them gently with a pair of forceps. Silk thread (4-0) was attached to both ends of the vesicle and it was suspended in a 20 ml. muscle chamber containing modified oxygenated Tyrode's solution (g./liter: NaCl 8, KCl 0.2, CaCl2 0.26, NaHCO3 1, Na2 HPO4 0.0575, glucose 0.5 and MgCl2 0.02). The bathing fluid was maintained at 37° C. with a thermostatically controlled isolated organ tissue bath. Contractions were recorded isometrically by means of a force displacement transducer and recordings were made with a Beckman RP Dynograph. Norepinephrine (NE) was added to the muscle chamber in volumes ranging from 0.1 to 0.4 ml. with a one ml. syringe attached to a 3 inch 20 gauge needle. NE and test compounds were dissolved in deionized water.
NE dose response curves were obtained alone and in the presence of test compounds. NE was allowed to remain in contact with the strip until a maximal contraction was obtained. The strip was then washed with the perfusion fluid for 15-30 seconds and the preparation was allowed to return to base line before a subsequent dose of NE was given. Increasing amounts of NE were injected into the bath in the same manner until a complete dose response was obtained.
The seminal vesicles used to obtain the control NE dose response were discarded and new preparations were placed in the tissue bath for evaluation of the test compound. The test compound was added directly to the perfusion fluid (10 nanograms/ml.) and the strips were allowed to remain in contact with the bathing media for at least 10 minutes before the NE dose response was determined.
ED50 values for NE were obtained by regression analysis as described by Finney, Probit. Analysis, 2d Ed., Cambridge (1964). A minimum of 4 strips and at least 4 doses were employed to calculate the regression lines. The ED50 value is defined as the concentration of NE which produces a contraction equal to 50% of the maximal contraction.

α-adrenergic receptor [3] = assay: Anesthetized dog assay for α-adrenergic blocking agents (inhibition of norepinephrine induced pressor responses); format: in vivo
Protocol: as §1, with “1. In the in vitro test, the inhibition by BL-5111 of norepinephrine induced contractions of rat seminal vesicles was measured; and in the in vivo test, the inhibition by BL-5111 of norepinephrine induced pressor responses in anesthetized dogs was measured.” for “1.”
Nash, C. B., Pharmacological Research Communications, 4:423, (1969) and Maxwell, R. A., Drill's Pharmacology in Medicine, (1971) p. 683 have shown that in anesthetized dogs α-adrenergic blocking agents antagonize the blood pressure elevating effects of intravenous norepinephrine. Thus, blood pressure responses to norepinephrine (NE) in anesthetized dogs was used as a comparative assay for α-adrenergic receptor blocking properties of drugs.
Experiments were done on mongrel dogs anesthetized with sodium pentobarbital, 30 mg./kg. iv. The left femoral artery was cannulated to record aortic blood pressure and a femoral vein was cannulated for administration of drugs. All animals underwent a bilateral vagotomy. A norepinephrine dose-response curve was obtained by administering increasing doses of iv. norepinephrine (0.01 - 1 μg/kg). […] Approximately 30 minutes later a dose-response curve was again established for iv. norepinephrine (0.01-10 μg/kg).

Solubility in water = format: physicochemical; details: in words
Protocol: Compound I can exist in two polymorphic forms. In an earlier experiment similar to Experiment E with the exception that an excess of piperazine hydrobromide was used, a water soluble form (Isomorph A) of Compound I having a M.P. of 224°-228° C. was obtained. This product was recrystallized from nitromethane to give an analytical sample of Isomorph A having a M.P. of 227°-229° C.
A 200 mg. sample of Isomorph A was dissolved in 10 ml. of water at 20° C. The solution was heated at 60° C. for 3 minutes, then cooled to 35° C. and filtered. […] This product was termed Isomorph B of Compound I.

α-adrenergic receptor [4] = details: in words; literature; cited from earlier work
vascular smooth muscle = details: in words; literature; cited from earlier work
humans [5] = details: clinical, in words; literature; cited from earlier work
humans [6] = assay: Clinical use as antihypertensive agent (literature); format: in vivo, human; details: lower end of clinical daily dosage range (trimazosin 150 to 500 mg, prazosin 1.5 to 15 mg)
[7] = 1 mg/kg, oral, spontaneous hypertensive rats
[8] = 3 mg/kg, oral, spontaneous hypertensive rats
[9] = 10 mg/kg, oral, spontaneous hypertensive rats
[10] = oral, spontaneous hypertensive rats
[11] = 10 nano/ml, isolated rat seminal vesicles

Row | solubility in water (Solubility in water) | SMILES | % Blood Pressure Change [1, 7] [%] | % Blood Pressure Change [1, 8] [%] | % Blood Pressure Change [1, 9] [%] | ED50 [1, 10] [mg/kg] | Percent Change From Control (NE ED50) (α-adrenergic receptor [2]; [11]) [%] | decrease in the sensitivity of isolated rat seminal vesicles to the stimulant activity of NE (α-adrenergic receptor [2]; in words) | NE ED50 with 95% Conf. Limits (α-adrenergic receptor [2]; isolated rat seminal vesicles) | also measured
1 | – | COc1cc2nc(N3CCN(C(=O)c4nnc(SC)o4)CC3)nc(N)c2cc1OC.Cl [BL-5111, 4-Amino-6,7-dimethoxy-2-[4-(5-methylthio-1,3,4-oxadiazole-2-carbonyl)-piperazin-1-yl]-quinazoline hydrochloride] | -19 | -26 | -41 | 2.3 | 4.5 | essentially inactive | 0.93 (0.80-1.08) μg/ml | antihypertensive potency compared to prazosin ([1]; in words): comparable antihypertensive potency to prazosin; Antihypertensive Activity Ratio ([1]; relative to prazosin, oral, spontaneous hypertensive rats): 0.91; LD50 (in vivo): 45.7 mg/kg; Activity Ratio Relative to Prazosin (α-adrenergic receptor [2]; Table II, 10 nano/ml, isolated rat seminal vesicles): 0.008; α-adrenergic blocking activity relative to prazosin (α-adrenergic receptor [2]; conclusion from isolated rat seminal vesicles, in words): less than one percent; times less active than prazosin in causing α-adrenergic blockade (α-adrenergic receptor [3]; 3 mg/kg iv, anesthetized dogs): approximately 30 times; α-Adrenergic Receptor Blocking Effect, In Vivo Activity Ratio (α-adrenergic receptor [3]; Table 1, relative to prazosin, intravenous, anesthetized dogs): 0.04; Activity Ratio Relative to Prazosin (α-adrenergic receptor [3]; Table III, 3 mg/kg iv, anesthetized dogs): 0.036; peripheral α-adrenergic blocking properties (α-adrenergic receptor [3]; in words, in vitro and in vivo tests together (Table 1)): little or none of the peripheral α-adrenergic blocking properties shown by prazosin
2 | water soluble | COc1cc2nc(N3CCNCC3)nc(N)c2cc1OC [Isomorph A, 4-amino-6,7-dimethoxy-2-(1-piperazinyl)quinazoline] | – | – | – | – | – | – | – | –
3 | would not redissolve in boiling water | COc1cc2nc(N3CCNCC3)nc(N)c2cc1OC [Isomorph B, 4-amino-6,7-dimethoxy-2-(1-piperazinyl)quinazoline] | – | – | – | – | – | – | – | –
4 | – | COc1cc2nc(N3CCN(C(=O)c4ccco4)CC3)nc(N)c2cc1OC [Prazosin, 2-[4-(2-furoyl)-piperazin-1-yl]-4-amino-6,7-dimethoxyquinazoline, reference compound] | -14 | -29 | -42 | 2.1 | 578 | nearly a six fold decrease | 6.03 (5.30-6.81) μg/ml | peripheral α-adrenergic receptor blockade (α-adrenergic receptor [4]): functional peripheral α-adrenergic receptor blockade; vasodilation effect on vascular smooth muscle (vascular smooth muscle): direct peripheral vasodilation effect on vascular smooth muscle
5 | – | COc1cc2c(N)nc(N3CCN(C(=O)OCC(C)(C)O)CC3)nc2c(OC)c1OC [Trimazosin] | – | – | – | – | – | – | – | activity in humans as an antihypertensive agent (humans [5]): active in humans as an antihypertensive agent; potency relative to prazosin (fold weaker) (humans [6]): 100 fold
